Test results as given in BigSolDB 2.1.

CN1C(C(=O)Nc2ccccn2)=C(O)c2sccc2S1(=O)=O
Conditions | solubility (mole fraction)
in PEG-400, 298.15 K | 0.00976
in PEG-400, 303.15 K | 0.0131
in PEG-400, 308.15 K | 0.0175
in PEG-400, 313.15 K | 0.0227
in PEG-400, 323.15 K | 0.0345

solubility (mole fraction)
Conditions | in ethanol | in ethyl acetate | in ethylene glycol | in isopropanol | in n-butanol | in propylene glycol | in sec-butanol | in transcutol | in water
298.15 K | 3.71e-05 | 0.000679 | 0.000213 | 6.27e-05 | 8.13e-05 | 0.000194 | 6.15e-05 | 0.00183 | 4.11e-06
303.15 K | 4.11e-05 | 0.000746 | 0.000246 | 8.91e-05 | 0.000105 | 0.000235 | 8.79e-05 | 0.00202 | 5.07e-06
308.15 K | 4.56e-05 | 0.000825 | 0.000283 | 0.000125 | 0.000134 | 0.000275 | 0.000123 | 0.00222 | 6.46e-06
313.15 K | 4.98e-05 | 0.000908 | 0.000324 | 0.000164 | 0.000163 | 0.000327 | 0.000163 | 0.00241 | 8.33e-06
323.15 K | 5.84e-05 | 0.00106 | 0.000441 | 0.000267 | 0.000239 | 0.000437 | 0.000272 | 0.00286 | 1.38e-05
